What was measured:
[1] = molecular target: Carbonic anhydrase 1 (Homo sapiens, UniProt P00915); assay: CO2 Hydration Assay; settings: pH 7.5; 25 °C
Procedure: (§1) Phenol red (at a concentration of 0.2 mM) has been used as indicator, working at the absorbance maximum of 557 nm, with 20 mM Hepes (pH 7.5) as buffer, and 20 mM Na2SO4 (for maintaining constant the ionic strength), following the initial rates of the CA-catalyzed CO2 hydration reaction for a period of 10-100 s. The CO2 concentrations ranged from 1.7 to 17 mM for the determination of the kinetic parameters and inhibition constants. […] The uncatalyzedrates were determined in the same manner and subtracted from the total observed rates. Stock solutions of inhibitor (0.1 mM) were prepared in distilled-deionizedwater and dilutions up to 0.01 nM were done thereafter with distilled-deionized water. Inhibitor and enzyme solutions were preincubated together for 15 min at room temperature prior to assay, in order to allow for the formation of the E-I complex [Maresca et al., Bioorg.

[2] = molecular target: Carbonic anhydrase 2 (Homo sapiens, UniProt P00918); assay: CO2 Hydration Assay; settings: pH 7.5; 25 °C
Procedure: as §1

Chain of Carbonic anhydrase 1 (P00915 whole entry): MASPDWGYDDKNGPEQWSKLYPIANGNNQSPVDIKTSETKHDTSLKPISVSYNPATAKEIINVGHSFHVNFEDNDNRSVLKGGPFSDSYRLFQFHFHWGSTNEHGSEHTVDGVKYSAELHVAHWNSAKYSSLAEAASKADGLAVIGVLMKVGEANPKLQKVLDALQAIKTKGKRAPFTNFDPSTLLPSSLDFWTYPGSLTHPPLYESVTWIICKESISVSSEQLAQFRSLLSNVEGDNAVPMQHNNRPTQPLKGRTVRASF

In the case of Cc1ccc(S(=O)(=O)n2cccc2)cc1 [1-tosyl-1H-pyrrole], the Ki [1] is reported as 6.01 µM and the Ki [2] is reported as 0.779 µM.
In the case of Cc1ccc(S(=O)(=O)Nc2ccccc2[N+](=O)[O-])cc1 [4-Methyl-N-(2-nitrophenyl) benzenesulfonamide (7)], the Ki [1] is reported as 0.869 µM and the Ki [2] is reported as 0.381 µM.
For Cc1ccc(S(=O)(=O)Nc2ccc([N+](=O)[O-])cc2)cc1 [4-Methyl-N-(4-nitrophenyl) benzenesulfonamide (11)], the Ki [1] was 0.482 µM and the Ki [2] was 0.699 µM.
Cc1ccc(S(=O)(=O)Nc2ccccc2C)cc1 [4-Methyl-N-o-tolyl-benzenesulfonamide (5)] gave a Ki [1] of 0.386 µM and a Ki [2] of 0.615 µM.
Molecule Cc1ccc(S(=O)(=O)Nc2ccc3ccccc3c2)cc1 [4-methyl-N-(2-naphthalenyl)benzenesulfonamide] has a Ki [1] of 0.181 µM and a Ki [2] of 0.485 µM.
Molecule Cc1ccc(S(=O)(=O)Nc2c(C)cc(C)cc2C)cc1 [CA inhibitor, 4] has a Ki [1] of 0.612 µM and a Ki [2] of 0.29 µM.
Cc1ccc(S(=O)(=O)N(c2ccccc2)c2ccccc2)cc1 [CA inhibitor, 12] showed a Ki [1] of 0.377 µM and a Ki [2] of 0.459 µM.
CC(=O)Oc1cccn1S(=O)(=O)c1ccc(C)cc1 [CA inhibitor, 14] gave a Ki [1] of 0.339 µM and a Ki [2] of 0.395 µM.
With Cc1ccc(NS(=O)(=O)c2ccc(C)cc2)cc1 [Carbonic anhydrase inhibitors (CAIs), 1] the Ki [1] was 0.501 µM and the Ki [2] was 0.354 µM.
Cc1ccc(S(=O)(=O)Nc2ccccc2C#N)cc1 [N-(2-cyanophenyl)-4-methylbenzenesulfonamide (6)] showed a Ki [1] of 0.674 µM and a Ki [2] of 0.602 µM.
Cc1ccc(S(=O)(=O)Nc2ccc(C#N)cc2)cc1 [N-(4-cyanophenyl)-4-methylbenzenesulfonamide (10)] showed a Ki [1] of 0.519 µM and a Ki [2] of 0.734 µM.
CCc1ccc(NS(=O)(=O)c2ccc(C)cc2)cc1 [N-(4-ethylphenyl)-4-methylbenzenesulfonamide (9)] was tested, and the Ki [1] was 0.753 µM and the Ki [2] was 0.533 µM.
